Values quoted from earlier work in PMC7196435 (Bioorganic & medicinal chemistry letters, 2020).

System: CYP46A1
Details: at 1 μM concentration

SMILES: O=C(NCc1ccccc1)N1CCN(c2cncnc2-c2ccccc2)CC1 [compound 1]
- inhibitory activity towards CYP46A1: 95%
